Test system: MV-4-11 cells
Test: Gene expression microarray analysis (Affymetrix PrimeView) and GSEA
Assay type: cell-based, human
Parameters: RFU PODN (11730768_x_at) / Fold change /veh PODN (11730768_x_at) / RFU LINC00158 (11744669_a_at) / Fold change /veh LINC00158 (11744669_a_at) / RFU DUSP10 (11751237_a_at) / Fold change /veh DUSP10 (11751237_a_at) / RFU ID3 (11757404_x_at) / Fold change /veh ID3 (11757404_x_at) / RFU PLEKHG5 (11737974_s_at) / Fold change /veh PLEKHG5 (11737974_s_at) / RFU LRRC4B (11730491_at) / Fold change /veh LRRC4B (11730491_at) / RFU GIMAP4 (11747438_a_at) / Fold change /veh GIMAP4 (11747438_a_at) / RFU KRT8 (11758183_x_at) / Fold change /veh KRT8 (11758183_x_at) / RFU CNN1 (11734310_a_at) / Fold change /veh CNN1 (11734310_a_at) / RFU VPS37D (11726825_at) / Fold change /veh VPS37D (11726825_at) / RFU C10orf10 (11716522_x_at) / Fold change /veh C10orf10 (11716522_x_at) / RFU KIR2DL2 /// KIR2DL4 /// KIR2DL5A /// KIR2DL5B /// KIR2DS1 /// KIR2DS2 /// KIR2DS3 /// KIR2DS4 /// KIR3DL3 /// KIR3DL3 /// KIR3DS1 (11738374_at) / Fold change /veh KIR2DL2 /// KIR2DL4 /// KIR2DL5A /// KIR2DL5B /// KIR2DS1 /// KIR2DS2 /// KIR2DS3 /// KIR2DS4 /// KIR3DL3 /// KIR3DL3 /// KIR3DS1 (11738374_at) / RFU C1QL1 (11718748_at) / Fold change /veh C1QL1 (11718748_at) / RFU TMPRSS4 (11747572_a_at) / Fold change /veh TMPRSS4 (11747572_a_at) / RFU HAMP (11756126_x_at) / Fold change /veh HAMP (11756126_x_at) / RFU RNFT2 (11725882_a_at) / Fold change /veh RNFT2 (11725882_a_at) / RFU NR4A2 (11747474_a_at) / Fold change /veh NR4A2 (11747474_a_at) / RFU ABCC12 (11746883_a_at) / Fold change /veh ABCC12 (11746883_a_at) / RFU TMEM136 (11760407_x_at) / Fold change /veh TMEM136 (11760407_x_at) / RFU CLDN22 /// WWC2 (11732394_at) / Fold change /veh CLDN22 /// WWC2 (11732394_at) / RFU HLA-DPB1 (11760878_x_at) / Fold change /veh HLA-DPB1 (11760878_x_at) / RFU SPINT1 (11716480_a_at) / Fold change /veh SPINT1 (11716480_a_at) / RFU GAP43 (11754022_s_at) / Fold change /veh GAP43 (11754022_s_at) / RFU A4GNT (11735810_at) / Fold change /veh A4GNT (11735810_at) / RFU PRB3 (11715151_x_at) / Fold change /veh PRB3 (11715151_x_at) / RFU TUBB4B (11761932_at) / Fold change /veh TUBB4B (11761932_at) / RFU CAPN14 (11732068_a_at) / Fold change /veh CAPN14 (11732068_a_at) / RFU TMCC2 (11721928_a_at) / Fold change /veh TMCC2 (11721928_a_at) / RFU IRGQ (11745062_a_at) / Fold change /veh IRGQ (11745062_a_at) / RFU FAM174B (11720279_a_at) / Fold change /veh FAM174B (11720279_a_at) / RFU TMPRSS4 (11748680_a_at) / Fold change /veh TMPRSS4 (11748680_a_at) / RFU FAM212B (11763350_a_at) / Fold change /veh FAM212B (11763350_a_at) / RFU PLEKHG5 (11743358_a_at) / Fold change /veh PLEKHG5 (11743358_a_at) / RFU ZSCAN30 (11745921_a_at) / Fold change /veh ZSCAN30 (11745921_a_at) / RFU CMKLR1 (11741424_a_at) / Fold change /veh CMKLR1 (11741424_a_at) / RFU LOC101060620 /// MAPK8IP1 (11723275_at) / Fold change /veh LOC101060620 /// MAPK8IP1 (11723275_at) / RFU SPTSSB (11747773_x_at) / Fold change /veh SPTSSB (11747773_x_at) / RFU PRSS12 (11739890_at) / Fold change /veh PRSS12 (11739890_at) / RFU BIN1 (11741810_x_at) / Fold change /veh BIN1 (11741810_x_at) / RFU WNT11 (11732464_a_at) / Fold change /veh WNT11 (11732464_a_at) / RFU C10orf10 (11716521_a_at) / Fold change /veh C10orf10 (11716521_a_at) / RFU C5orf56 (11738089_at) / Fold change /veh C5orf56 (11738089_at) / RFU CYB561 (11721691_x_at) / Fold change /veh CYB561 (11721691_x_at) / RFU ANKRD19P (11752326_a_at) / Fold change /veh ANKRD19P (11752326_a_at) / RFU OR2T12 /// OR2T33 /// OR2T8 (11738714_s_at) / Fold change /veh OR2T12 /// OR2T33 /// OR2T8 (11738714_s_at) / RFU VCAN (11748164_a_at) / Fold change /veh VCAN (11748164_a_at) / RFU JSRP1 (11732532_at) / Fold change /veh JSRP1 (11732532_at) / RFU KRTAP10-11 (11738290_x_at) / Fold change /veh KRTAP10-11 (11738290_x_at) / RFU MYO3A (11730013_a_at) / Fold change /veh MYO3A (11730013_a_at) / RFU EBF3 (11725865_a_at) / Fold change /veh EBF3 (11725865_a_at) / RFU CAMK2N1 (11719241_x_at) / Fold change /veh CAMK2N1 (11719241_x_at) / RFU C5orf56 (11738088_a_at) / Fold change /veh C5orf56 (11738088_a_at) / RFU OLFML3 (11715873_a_at) / Fold change /veh OLFML3 (11715873_a_at) / RFU LOC100653217 /// NTM (11731650_a_at) / Fold change /veh LOC100653217 /// NTM (11731650_a_at) / RFU MAPK11 (11762145_a_at) / Fold change /veh MAPK11 (11762145_a_at) / RFU FIZ1 (11724087_x_at) / Fold change /veh FIZ1 (11724087_x_at) / RFU OASL (11726364_x_at) / Fold change /veh OASL (11726364_x_at) / RFU SOX15 (11748057_x_at) / Fold change /veh SOX15 (11748057_x_at) / RFU CD79A (11719716_a_at) / Fold change /veh CD79A (11719716_a_at) / RFU HIST1H1D (11736915_at) / Fold change /veh HIST1H1D (11736915_at) / RFU CASKIN2 (11723855_a_at) / Fold change /veh CASKIN2 (11723855_a_at) / RFU LOC730098 (11760151_x_at) / Fold change /veh LOC730098 (11760151_x_at) / RFU OR4N2 (11742367_at) / Fold change /veh OR4N2 (11742367_at) / RFU PRRT2 (11749266_a_at) / Fold change /veh PRRT2 (11749266_a_at) / RFU SNX32 (11753110_a_at) / Fold change /veh SNX32 (11753110_a_at) / RFU CDHR5 (11726645_a_at) / Fold change /veh CDHR5 (11726645_a_at) / RFU RCAN1 (11760418_a_at) / Fold change /veh RCAN1 (11760418_a_at) / RFU FAM167A (11723789_a_at) / Fold change /veh FAM167A (11723789_a_at) / RFU FAM26E (11764081_at) / Fold change /veh FAM26E (11764081_at) / RFU ISYNA1 (11749810_s_at) / Fold change /veh ISYNA1 (11749810_s_at) / RFU ACY1 (11761880_at) / Fold change /veh ACY1 (11761880_at) / RFU 11764098_at / Fold change /veh 11764098_at / RFU SAMD14 (11745864_x_at) / Fold change /veh SAMD14 (11745864_x_at) / RFU NPB (11741838_a_at) / Fold change /veh NPB (11741838_a_at) / RFU TMPRSS6 (11731388_a_at) / Fold change /veh TMPRSS6 (11731388_a_at) / RFU KRTAP10-2 (11738614_at) / Fold change /veh KRTAP10-2 (11738614_at) / RFU ARHGAP8 /// PRR5-ARHGAP8 (11727945_x_at) / Fold change /veh ARHGAP8 /// PRR5-ARHGAP8 (11727945_x_at) / RFU KRTAP5-7 /// NADSYN1 (11734609_at) / Fold change /veh KRTAP5-7 /// NADSYN1 (11734609_at) / RFU RASL12 (11751679_a_at) / Fold change /veh RASL12 (11751679_a_at) / RFU CDKN2B (11736163_a_at) / Fold change /veh CDKN2B (11736163_a_at) / RFU PRF1 (11729649_at) / Fold change /veh PRF1 (11729649_at) / RFU, ZNF638 /// ZNF638-IT1 / Fold change vs veh, ZNF638 /// ZNF638-IT1 / RFU, PANK3 / Fold change vs veh, PANK3 / RFU, SH3YL1 / Fold change vs veh, SH3YL1 / RFU, ZEB2 / Fold change vs veh, ZEB2 / RFU, NRIP1 / Fold change vs veh, NRIP1 / RFU, PTTG1IP / Fold change vs veh, PTTG1IP / RFU, CAPN2 / Fold change vs veh, CAPN2 / RFU, MED14 / Fold change vs veh, MED14 / RFU, SNORA58 / Fold change vs veh, SNORA58 / RFU, C1orf63 / Fold change vs veh, C1orf63 / RFU, LRRFIP1 / Fold change vs veh, LRRFIP1 / RFU, NDUFAF7 / Fold change vs veh, NDUFAF7 / RFU, SLC12A2 / Fold change vs veh, SLC12A2 / RFU, IBTK / Fold change vs veh, IBTK / RFU, ESF1 / Fold change vs veh, ESF1 / Fold change vs veh, TMEM50B / RFU, TAOK1 / Fold change vs veh, TAOK1 / RFU, ACBD3 / Fold change vs veh, ACBD3 / RFU, TMA16 / Fold change vs veh, TMA16 / RFU, RWDD3 / Fold change vs veh, RWDD3 / RFU, BCAT1 / Fold change vs veh, BCAT1 / RFU, EDEM3 / Fold change vs veh, EDEM3 / RFU, TMEM33 / Fold change vs veh, TMEM33 / RFU, WDR75 / Fold change vs veh, WDR75 / RFU, AHCTF1 / Fold change vs veh, AHCTF1 / RFU, TFRC / Fold change vs veh, TFRC / RFU, ZDHHC17 / Fold change vs veh, ZDHHC17 / RFU, NOM1 / Fold change vs veh, NOM1 / RFU, ARL8B / Fold change vs veh, ARL8B / RFU, ZBTB11 / Fold change vs veh, ZBTB11 / RFU, TAMM41 / Fold change vs veh, TAMM41 / RFU, KIAA1704 /// LOC100996395 / Fold change vs veh, KIAA1704 /// LOC100996395 / RFU, ING1 / Fold change vs veh, ING1 / RFU, TRMT61B / Fold change vs veh, TRMT61B / RFU, FUBP3 / Fold change vs veh, FUBP3 / RFU, TP53 / Fold change vs veh, TP53 / RFU, TNKS2 / Fold change vs veh, TNKS2 / RFU, ZFP14 / Fold change vs veh, ZFP14 / RFU, ACTR2 / Fold change vs veh, ACTR2 / RFU, PPP3R1 / Fold change vs veh, PPP3R1 / RFU, PIK3R1 / Fold change vs veh, PIK3R1 / RFU, HNRNPA1 / Fold change vs veh, HNRNPA1 / RFU, RNF170 / Fold change vs veh, RNF170 / RFU, ZNF28 / Fold change vs veh, ZNF28 / RFU, RNGTT / Fold change vs veh, RNGTT / RFU, OGT / Fold change vs veh, OGT / RFU, BRD1 / Fold change vs veh, BRD1 / RFU, MARS / Fold change vs veh, MARS / RFU, ZNF655 / Fold change vs veh, ZNF655 / RFU, FAHD1 / Fold change vs veh, FAHD1 / RFU, BDP1 / Fold change vs veh, BDP1 / RFU, LRRCC1 / Fold change vs veh, LRRCC1 / RFU, ARID1A / Fold change vs veh, ARID1A / RFU, ZNF146 / Fold change vs veh, ZNF146 / RFU, ZNF330 / Fold change vs veh, ZNF330 / RFU, GPN3 / Fold change vs veh, GPN3 / RFU, C9orf123 / Fold change vs veh, C9orf123 / RFU, N4BP2L2 / Fold change vs veh, N4BP2L2 / RFU, ARFIP1 / Fold change vs veh, ARFIP1 / RFU, FAM179B / Fold change vs veh, FAM179B / RFU, BCL10 / Fold change vs veh, BCL10 / RFU, UHRF1BP1L / Fold change vs veh, UHRF1BP1L / RFU, BET1 / Fold change vs veh, BET1 / RFU, CNOT2 / Fold change vs veh, CNOT2 / RFU, ZNF268 / Fold change vs veh, ZNF268 / Fold change vs veh, ZNF507 / RFU, DGCR2 / Fold change vs veh, DGCR2 / RFU, WDSUB1 / Fold change vs veh, WDSUB1 / Fold change vs veh, HSP90B1 /// MIR3652 / RFU, ADSS / Fold change vs veh, ADSS / RFU, GK / Fold change vs veh, GK / RFU, ZNF148 / Fold change vs veh, ZNF148 / RFU, TAF9 / Fold change vs veh, TAF9 / RFU, SLC1A5 / Fold change vs veh, SLC1A5 / RFU, SLMO2 / Fold change vs veh, SLMO2 / RFU, ABCC4 / Fold change vs veh, ABCC4 / RFU, LOC101060439 /// RAP1B / Fold change vs veh, LOC101060439 /// RAP1B / RFU, RFX7 / Fold change vs veh, RFX7 / RFU, GTPBP10 / Fold change vs veh, GTPBP10 / RFU, CNEP1R1 / Fold change vs veh, CNEP1R1 / RFU, BIVM-ERCC5 /// ERCC5 / Fold change vs veh, BIVM-ERCC5 /// ERCC5 / RFU, ILF3 / Fold change vs veh, ILF3 / RFU 11762660_at / Fold change /veh 11762660_at / RFU VCAN (11757783_s_at) / Fold change /veh VCAN (11757783_s_at) / RFU DDX43 (11728927_at) / Fold change /veh DDX43 (11728927_at) / RFU KRT8 (11758188_x_at) / Fold change /veh KRT8 (11758188_x_at) / RFU NKD1 (11759106_at) / Fold change /veh NKD1 (11759106_at) / RFU SRD5A1 (11742802_a_at) / Fold change /veh SRD5A1 (11742802_a_at) / RFU TPSAB1 /// TPSB2 (11721975_s_at) / Fold change /veh TPSAB1 /// TPSB2 (11721975_s_at) / RFU GSTM3 (11746129_a_at) / Fold change /veh GSTM3 (11746129_a_at) / RFU IL23R (11737362_x_at) / Fold change /veh IL23R (11737362_x_at) / RFU TMEM51 (11727254_a_at) / Fold change /veh TMEM51 (11727254_a_at) / RFU PIWIL2 (11732686_x_at) / Fold change /veh PIWIL2 (11732686_x_at) / RFU ORM1 (11744905_x_at) / Fold change /veh ORM1 (11744905_x_at) / RFU CCDC152 (11743942_at) / Fold change /veh CCDC152 (11743942_at) / RFU ECM1 (11717891_a_at) / Fold change /veh ECM1 (11717891_a_at) / RFU IL23R (11748794_a_at) / Fold change /veh IL23R (11748794_a_at) / RFU TNFAIP8L3 (11732012_x_at) / Fold change /veh TNFAIP8L3 (11732012_x_at) / RFU MBOAT4 (11741988_at) / Fold change /veh MBOAT4 (11741988_at) / RFU 11764193_at / Fold change /veh 11764193_at / RFU TMEM53 (11763286_at) / Fold change /veh TMEM53 (11763286_at) / RFU MAGEB2 (11727129_at) / Fold change /veh MAGEB2 (11727129_at) / RFU TMEM200A (11744735_a_at) / Fold change /veh TMEM200A (11744735_a_at) / RFU CCDC152 (11751479_a_at) / Fold change /veh CCDC152 (11751479_a_at) / RFU FAM211A (11726209_a_at) / Fold change /veh FAM211A (11726209_a_at) / RFU RGS16 (11746705_a_at) / Fold change /veh RGS16 (11746705_a_at) / RFU VCAN (11755009_s_at) / Fold change /veh VCAN (11755009_s_at) / RFU RHOB (11743442_s_at) / Fold change /veh RHOB (11743442_s_at) / RFU RGS16 (11720943_a_at) / Fold change /veh RGS16 (11720943_a_at) / RFU RGS16 (11720944_at) / Fold change /veh RGS16 (11720944_at) / RFU, VPS4B / Fold change vs veh, VPS4B / RFU, CREB1 / Fold change vs veh, CREB1 / RFU, DNAJC13 / Fold change vs veh, DNAJC13 / RFU, GNAQ / Fold change vs veh, GNAQ / RFU, CDK5R1 / Fold change vs veh, CDK5R1 / RFU, ZRANB3 / Fold change vs veh, ZRANB3 / RFU, CUL4A / Fold change vs veh, CUL4A / RFU, CCNY / Fold change vs veh, CCNY / RFU, UFL1 / Fold change vs veh, UFL1 / RFU, COG3 / Fold change vs veh, COG3 / RFU, DIAPH2 / Fold change vs veh, DIAPH2 / RFU, SKA2 / Fold change vs veh, SKA2 / RFU, AFF3 / Fold change vs veh, AFF3 / RFU, LMF1 / Fold change vs veh, LMF1 / RFU, IPO11 / Fold change vs veh, IPO11 / RFU, DFFB / Fold change vs veh, DFFB / RFU, FOXP1 / Fold change vs veh, FOXP1 / RFU, CARD8 / Fold change vs veh, CARD8 / RFU, STRN3 / Fold change vs veh, STRN3 / RFU, ADK / Fold change vs veh, ADK / RFU, RASSF2 / Fold change vs veh, RASSF2 / RFU, WIPF1 / Fold change vs veh, WIPF1 / RFU, LARP1B / Fold change vs veh, LARP1B / RFU, RASA1 / Fold change vs veh, RASA1 / RFU, RB1 / Fold change vs veh, RB1 / RFU, PPFIA1 / Fold change vs veh, PPFIA1 / RFU, MAT2A / Fold change vs veh, MAT2A / RFU, CCT5 / Fold change vs veh, CCT5 / RFU, WDR92 / Fold change vs veh, WDR92 / RFU, CUX1 / Fold change vs veh, CUX1 / RFU, TTC7A / Fold change vs veh, TTC7A / RFU, TMEM135 / Fold change vs veh, TMEM135 / RFU, DEPTOR / Fold change vs veh, DEPTOR / RFU, CPM / Fold change vs veh, CPM / RFU, DNAJB6 / Fold change vs veh, DNAJB6 / RFU, CACNA2D3 / Fold change vs veh, CACNA2D3 / RFU, DTX4 / Fold change vs veh, DTX4 / RFU, TFCP2 / Fold change vs veh, TFCP2 / RFU, GMCL1 /// GMCL1P1 / Fold change vs veh, GMCL1 /// GMCL1P1 / RFU, AEBP2 / Fold change vs veh, AEBP2 / RFU, SNHG1 /// SNORD22 /// SNORD25 /// SNORD26 /// SNORD27 /// SNORD28 /// SNORD29 /// SNORD31 / Fold change vs veh, SNHG1 /// SNORD22 /// SNORD25 /// SNORD26 /// SNORD27 /// SNORD28 /// SNORD29 /// SNORD31 / Fold change (Aza/veh), C12orf56 (ProbeSet 11735607_a_at) / Fold change (ACY-1035/veh), C12orf56 (ProbeSet 11735607_a_at) / Fold change (Aza/veh), FGFR1OP (ProbeSet 11751329_s_at) / Fold change (ACY-1035/veh), FGFR1OP (ProbeSet 11751329_s_at) / Fold change (Aza/veh), VPS36 (ProbeSet 11739960_a_at) / Fold change (ACY-1035/veh), VPS36 (ProbeSet 11739960_a_at) / RFU SYPL1 (11715823_x_at) / Fold change /veh SYPL1 (11715823_x_at) / RFU IGFBP7 (11715501_s_at) / Fold change /veh IGFBP7 (11715501_s_at) / RFU REEP3 (11722064_at) / Fold change /veh REEP3 (11722064_at) / RFU IGLL1 (11728026_x_at) / Fold change /veh IGLL1 (11728026_x_at): dose or concentration left out as unconfirmed
Conditions: MV-4-11 cells, 48 hours

Nc1ncn([C@@H]2O[C@H](CO)[C@@H](O)[C@H]2O)c(=O)n1 [azacitidine]
RFU NR4A2 (11747474_a_at): 22.61 RFU

Reference: publication PMC5218480 (PLoS ONE, 2017)
